Measured values published in patent US20260022142A1, “MACROCYCLIC IMMUNOMODULATORS” (Bristol-Myers Squibb Company, priority 2022, published 2026).
Like-named read-outs stand apart in the source and are kept apart here. Bridge positions count the residues as written; N and C are the ends. Square brackets hold non-standard residues; d marks the D form. Peptide text beside a SMILES is read from it. * marks the point of attachment. Phe(4-CONH2) = NC(=O)c1ccc(C[C@H](N)C(=O)O)cc1; Bip = N[C@@H](Cc1ccc(-c2ccccc2)cc1)C(=O)O; Phe(4-NH2) = Nc1ccc(C[C@H](N)C(=O)O)cc1; Phe(3-Me) = Cc1cccc(C[C@H](N)C(=O)O)c1; His(τ-Me) = Cn1cnc(C[C@H](N)C(=O)O)c1; His(π-Me) = Cn1cncc1C[C@H](N)C(=O)O; Val(3-OH) = CC(C)(O)[C@H](N)C(=O)O; Val(3-F) = CC(C)(F)[C@H](N)C(=O)O; 3Pal = N[C@@H](Cc1cccnc1)C(=O)O; 4Pal = N[C@@H](Cc1ccncc1)C(=O)O; Cha = N[C@@H](CC1CCCCC1)C(=O)O; Cit = NC(=O)NCCC[C@H](N)C(=O)O; Carboxymethyl = O=C(O)C*; Orn = NCCC[C@H](N)C(=O)O; Aun = NCCCCCCCCCCC(=O)O; Dab = NCC[C@H](N)C(=O)O; Dap = NC[C@H](N)C(=O)O; Piv = CC(C)(C)C(=O)*

Target: T1, PD-1/PD-L1 interaction (PE-labeled human PD-L1-Ig binding to Jurkat cell line over-expressing human PD-1) (Homo sapiens, UniProt Q15116)
T1 construct: expressed in transfected cells; host or cells: Jurkat
T1 sequence (Q15116 25-288): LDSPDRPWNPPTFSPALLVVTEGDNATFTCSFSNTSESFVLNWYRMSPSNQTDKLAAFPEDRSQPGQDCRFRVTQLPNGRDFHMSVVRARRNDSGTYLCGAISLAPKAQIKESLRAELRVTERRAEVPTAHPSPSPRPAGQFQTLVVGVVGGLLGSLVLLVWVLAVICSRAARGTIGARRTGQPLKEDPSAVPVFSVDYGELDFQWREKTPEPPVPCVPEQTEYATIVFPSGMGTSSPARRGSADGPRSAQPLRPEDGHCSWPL
Assay: Jurkat-PD-1 Cell Binding High-Content Screening Assay (CBA)
Format: cell-based
Conditions: PE-labeled PD-L1-Ig 20 nM final
How it was run: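 Jurkat-hPD-1 cells, DMEM/10% FCS; cpd 2 h 37° C; PE-PD-L1-Ig 20 nM final, 1 h; 4% PFA fix + Hoechst 33342, 3× dPBS wash; high-content imaging read-out.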

[1] = Jurkat cell line over-expressing human PD-1, read-out: Jurkat hPD1-PDL1 IC50

SMILES	IC50 [1] [nM]	IC50 (Jurkat hPD1-PDL1 IC50, Jurkat cell line over-expressing human PD-1) [nM]
Cc1cccc(C[C@@H]2NC(=O)[C@H](CC(=O)O)NC(=O)[C@H](Cc3ccc(OCC(=O)O)cc3)NC(=O)[C@H](CCCNC(=N)N)NC(=O)CSC[C@@H](C(=O)N[C@@H](CCN)C(=O)NCCCCCCCCCCC(=O)O)NC(=O)[C@H](CCC(N)=O)NC(=O)[C@H](C(C)(C)F)NC(=O)[C@H](CC3CCCCC3)NC(=O)[C@H](CCN)NC(=O)[C@@H](CC(C)C)NC(=O)[C@H](CCCN)NC(=O)[C@H](Cc3ccc(OCC(=O)O)cc3)NC(=O)[C@H](Cc3ccc(-c4ccccc4)cc3)NC(=O)[C@H](Cc3ccc(OCC(=O)O)cc3)NC2=O)c1 [Compound 2145] ({CH2CO}-RY(Carboxymethyl)D[Phe(3-Me)]Y(Carboxymethyl)[Bip]Y(Carboxymethyl)[Orn][dL][Dab][Cha][Val(3-F)]QC[Dab][Aun]-OH; thioether N-14)	2.1	
Cc1cccc(C[C@@H]2NC(=O)[C@H](CC(=O)O)NC(=O)[C@H](Cc3ccc(OCC(=O)O)cc3)NC(=O)[C@H](Cc3ccc(C(N)=O)cc3)NC(=O)CSC[C@@H](C(=O)N[C@@H](CCN)C(=O)NCCCCCCCCCCC(=O)O)NC(=O)[C@H]([C@@H](C)O)NC(=O)[C@H](C(C)C)NC(=O)[C@H](CC3CCCCC3)NC(=O)[C@H](CCN)NC(=O)[C@@H](CC(C)C)NC(=O)[C@H](CCCN)NC(=O)[C@H](Cc3ccc(OCC(=O)O)cc3)NC(=O)[C@H](Cc3ccc(-c4ccccc4)cc3)NC(=O)[C@H](Cc3ccc(OCC(=O)O)cc3)NC2=O)c1 [Compound 2146] ({CH2CO}-[Phe(4-CONH2)]Y(Carboxymethyl)D[Phe(3-Me)]Y(Carboxymethyl)[Bip]Y(Carboxymethyl)[Orn][dL][Dab][Cha]VTC[Dab][Aun]-OH; thioether N-14)		13.2
Cc1cccc(C[C@@H]2NC(=O)[C@H](CC(=O)O)NC(=O)[C@H](Cc3ccc(OCC(=O)O)cc3)NC(=O)[C@H](Cc3cncn3C)NC(=O)CSC[C@@H](C(=O)N[C@@H](CCN)C(=O)NCCCCCCCCCCC(=O)O)NC(=O)[C@H]([C@@H](C)O)NC(=O)[C@H](C(C)C)NC(=O)[C@H](CC3CCCCC3)NC(=O)[C@H](CCN)NC(=O)[C@@H](CC(C)C)NC(=O)[C@H](CCCN)NC(=O)[C@H](Cc3ccc(OCC(=O)O)cc3)NC(=O)[C@H](Cc3ccc(-c4ccccc4)cc3)NC(=O)[C@H](Cc3ccc(OCC(=O)O)cc3)NC2=O)c1 [Compound 2148] ({CH2CO}-[His(π-Me)]Y(Carboxymethyl)D[Phe(3-Me)]Y(Carboxymethyl)[Bip]Y(Carboxymethyl)[Orn][dL][Dab][Cha]VTC[Dab][Aun]-OH; thioether N-14)	25.4	
Cc1cccc(C[C@@H]2NC(=O)[C@H](CC(=O)O)NC(=O)[C@H](Cc3ccc(OCC(=O)O)cc3)NC(=O)[C@H](Cc3cccnc3)NC(=O)CSC[C@@H](C(=O)N[C@@H](CCN)C(=O)NCCCCCCCCCCC(=O)O)NC(=O)[C@H](CO)NC(=O)[C@H](C(C)C)NC(=O)[C@H](CC3CCCCC3)NC(=O)[C@H](CCN)NC(=O)[C@@H](CC(C)C)NC(=O)[C@H](CCCN)NC(=O)[C@H](Cc3ccc(OCC(=O)O)cc3)NC(=O)[C@H](Cc3ccc(-c4ccccc4)cc3)NC(=O)[C@H](C(C)(C)O)NC2=O)c1 [Compound 2149] ({CH2CO}-[3Pal]Y(Carboxymethyl)D[Phe(3-Me)][Val(3-OH)][Bip]Y(Carboxymethyl)[Orn][dL][Dab][Cha]VSC[Dab][Aun]-OH; thioether N-14)	55.1	
Cc1cccc(C[C@@H]2NC(=O)[C@H](CC(=O)O)NC(=O)[C@H](Cc3ccc(OCC(=O)O)cc3)NC(=O)[C@H](Cc3cn(C)cn3)NC(=O)CSC[C@@H](C(=O)N[C@@H](CCN)C(=O)NCCCCCCCCCCC(=O)O)NC(=O)[C@H](CO)NC(=O)[C@H](C(C)C)NC(=O)[C@H](CC3CCCCC3)NC(=O)[C@H](CCN)NC(=O)[C@@H](CC(C)C)NC(=O)[C@H](CCCN)NC(=O)[C@H](Cc3ccc(OCC(=O)O)cc3)NC(=O)[C@H](Cc3ccc(-c4ccccc4)cc3)NC(=O)[C@H](C(C)(C)O)NC2=O)c1 [Compound 2150] ({CH2CO}-[His(τ-Me)]Y(Carboxymethyl)D[Phe(3-Me)][Val(3-OH)][Bip]Y(Carboxymethyl)[Orn][dL][Dab][Cha]VSC[Dab][Aun]-OH; thioether N-14)	565	
Cc1cccc(C[C@@H]2NC(=O)[C@H](CC(=O)O)NC(=O)[C@H](Cc3ccc(OCC(=O)O)cc3)NC(=O)[C@H](Cc3ccncc3)NC(=O)CSC[C@@H](C(=O)N[C@@H](CCN)C(=O)NCCCCCCCCCCC(=O)O)NC(=O)[C@H]([C@@H](C)O)NC(=O)[C@H](C(C)C)NC(=O)[C@H](CC3CCCCC3)NC(=O)[C@H](CCN)NC(=O)[C@@H](CC(C)C)NC(=O)[C@H](CCCN)NC(=O)[C@H](Cc3ccc(OCC(=O)O)cc3)NC(=O)[C@H](Cc3ccc(-c4ccccc4)cc3)NC(=O)[C@H](C(C)(C)O)NC2=O)c1 [Compound 2151] ({CH2CO}-[4Pal]Y(Carboxymethyl)D[Phe(3-Me)][Val(3-OH)][Bip]Y(Carboxymethyl)[Orn][dL][Dab][Cha]VTC[Dab][Aun]-OH; thioether N-14)	40.6	

The remaining compounds from weak to strong by IC50 [1], led by results:

IC50 [1] [nM]	SMILES	IC50 (Jurkat hPD1-PDL1 IC50, Jurkat cell line over-expressing human PD-1) [nM]
73.6	Cc1cccc(C[C@@H]2NC(=O)[C@H](CC(=O)O)NC(=O)[C@H](Cc3ccc(OCC(=O)O)cc3)NC(=O)[C@H](Cc3cncn3C)NC(=O)CSC[C@@H](C(=O)N[C@@H](CCN)C(=O)NCCCCCCCCCCC(=O)O)NC(=O)[C@H]([C@@H](C)O)NC(=O)[C@H](C(C)C)NC(=O)[C@H](CC3CCCCC3)NC(=O)[C@H](CCN)NC(=O)[C@@H](CC(C)C)NC(=O)[C@H](CCCN)NC(=O)[C@H](Cc3ccc(OCC(=O)O)cc3)NC(=O)[C@H](Cc3ccc(-c4ccccc4)cc3)NC(=O)[C@H](C(C)(C)O)NC2=O)c1 [Compound 2152] ({CH2CO}-[His(π-Me)]Y(Carboxymethyl)D[Phe(3-Me)][Val(3-OH)][Bip]Y(Carboxymethyl)[Orn][dL][Dab][Cha]VTC[Dab][Aun]-OH; thioether N-14)	
23.4	Cc1cccc(C[C@@H]2NC(=O)[C@H](CC(=O)O)NC(=O)[C@H](Cc3ccc(OCC(=O)O)cc3)NC(=O)[C@H](CN)NC(=O)CSC[C@@H](C(=O)N[C@@H](CCN)C(=O)NCCCCCCCCCCC(=O)O)NC(=O)[C@H]([C@@H](C)O)NC(=O)[C@H](C(C)(C)O)NC(=O)[C@H](CC3CCCCC3)NC(=O)[C@H](CCN)NC(=O)[C@@H](CC(C)C)NC(=O)[C@H](CCCN)NC(=O)[C@H](CCCNC(N)=O)NC(=O)[C@H](Cc3ccc(-c4ccccc4)cc3)NC(=O)[C@H](C(C)C)NC2=O)c1 [Compound 2153] ({CH2CO}-[Dap]Y(Carboxymethyl)D[Phe(3-Me)]V[Bip][Cit][Orn][dL][Dab][Cha][Val(3-OH)]TC[Dab][Aun]-OH; thioether N-14)	
19.4	Cc1cccc(C[C@@H]2NC(=O)[C@H](CC(=O)O)NC(=O)[C@H](Cc3ccc(OCC(=O)O)cc3)NC(=O)[C@H](Cc3cn(C)cn3)NC(=O)CSC[C@@H](C(=O)N[C@@H](CCN)C(=O)NCCCCCCCCCCC(=O)O)NC(=O)[C@H](CCC(N)=O)NC(=O)[C@H](C(C)(C)O)NC(=O)[C@H](CC3CCCCC3)NC(=O)[C@H](CCN)NC(=O)[C@@H](CC(C)C)NC(=O)[C@H](CCCN)NC(=O)[C@H](Cc3ccc(OCC(=O)O)cc3)NC(=O)[C@H](Cc3ccc(-c4ccccc4)cc3)NC(=O)[C@H](Cc3ccc(OCC(=O)O)cc3)NC2=O)c1 [Compound 2155] ({CH2CO}-[His(τ-Me)]Y(Carboxymethyl)D[Phe(3-Me)]Y(Carboxymethyl)[Bip]Y(Carboxymethyl)[Orn][dL][Dab][Cha][Val(3-OH)]QC[Dab][Aun]-OH; thioether N-14)	
17.2	Cc1cccc(C[C@@H]2NC(=O)[C@H](CC(=O)O)NC(=O)[C@H](Cc3ccc(OCC(=O)O)cc3)NC(=O)[C@H](Cc3ccc(N)cc3)NC(=O)CSC[C@@H](C(=O)N[C@@H](CCN)C(=O)NCCCCCCCCCCC(=O)O)NC(=O)[C@H]([C@@H](C)O)NC(=O)[C@H](C(C)C)NC(=O)[C@H](CC3CCCCC3)NC(=O)[C@H](CCN)NC(=O)[C@@H](CC(C)C)NC(=O)[C@H](CCCN)NC(=O)[C@H](Cc3ccc(OCC(=O)O)cc3)NC(=O)[C@H](Cc3ccc(-c4ccccc4)cc3)NC(=O)[C@H](Cc3ccc(OCC(=O)O)cc3)NC2=O)c1 [Compound 2147] ({CH2CO}-[Phe(4-NH2)]Y(Carboxymethyl)D[Phe(3-Me)]Y(Carboxymethyl)[Bip]Y(Carboxymethyl)[Orn][dL][Dab][Cha]VTC[Dab][Aun]-OH; thioether N-14)	
9.8	Cc1cccc(C[C@@H]2NC(=O)[C@H](CC(=O)O)NC(=O)[C@H](Cc3ccc(OCC(=O)O)cc3)NC(=O)[C@H](CCNC(=O)C(C)(C)C)NC(=O)CSC[C@@H](C(=O)N[C@@H](CCN)C(=O)NCCCCCCCCCCC(=O)O)NC(=O)[C@H](CCC(N)=O)NC(=O)[C@H](C(C)(C)F)NC(=O)[C@H](CC3CCCCC3)NC(=O)[C@H](CCN)NC(=O)[C@@H](CC(C)C)NC(=O)[C@H](CCCN)NC(=O)[C@H](Cc3ccc(OCC(=O)O)cc3)NC(=O)[C@H](Cc3ccc(-c4ccccc4)cc3)NC(=O)[C@H](Cc3ccc(OCC(=O)O)cc3)NC2=O)c1 [Compound 2156] ({CH2CO}-[Dab](Piv)Y(Carboxymethyl)D[Phe(3-Me)]Y(Carboxymethyl)[Bip]Y(Carboxymethyl)[Orn][dL][Dab][Cha][Val(3-F)]QC[Dab][Aun]-OH; thioether N-14)	
9.2	Cc1cccc(C[C@@H]2NC(=O)[C@H](CC(=O)O)NC(=O)[C@H](Cc3ccc(OCC(=O)O)cc3)NC(=O)[C@H](Cc3ccc(C(N)=O)cc3)NC(=O)CSC[C@@H](C(=O)N[C@@H](CCN)C(=O)NCCCCCCCCCCC(=O)O)NC(=O)[C@H](CCC(N)=O)NC(=O)[C@H](C(C)(C)O)NC(=O)[C@H](CC3CCCCC3)NC(=O)[C@H](CCN)NC(=O)[C@@H](CC(C)C)NC(=O)[C@H](CCCN)NC(=O)[C@H](Cc3ccc(OCC(=O)O)cc3)NC(=O)[C@H](Cc3ccc(-c4ccccc4)cc3)NC(=O)[C@H](Cc3ccc(OCC(=O)O)cc3)NC2=O)c1 [Compound 2154] ({CH2CO}-[Phe(4-CONH2)]Y(Carboxymethyl)D[Phe(3-Me)]Y(Carboxymethyl)[Bip]Y(Carboxymethyl)[Orn][dL][Dab][Cha][Val(3-OH)]QC[Dab][Aun]-OH; thioether N-14)	
